Results from patent publication US20260137707A1, “METHODS OF MODULATING ATXN2 EXPRESSION” (University of Utah Research Foundation, priority 2022, published 2026).
Where a name gives a salt, the structure may show the parent alone. Read-outs that look alike come from different tables or passages of the source.

Legend:
[1] = system: ATXN2-luc; test: cells; conditions: for activity at 10 µM: read-out: Luc at 10 μm; for activity at 1 µM: read-out: Luc at 1 μm
[2] = system: ATXN2-luc; conditions: H2 cells
[3] = Table 1, 24 hrs, single 10 μM dose, Z-score of luciferase

Compound	activity at 10 µM [1]	SD from Mean [2, 3]	further results
CC(N/C(=N\C#N)Nc1ccncc1)C(C)(C)C (stereo not shown)	17%	−4.875 SD	SD from Mean ([2]; Table 5S, pilot screen, 10 μM): −4.875 SD
O=C1C=CC(=O)c2ccccc21 [4-NAPHTHOQUINONE]		−3.613 SD	
CCCCCCCCCOc1ccc2[nH]cc(CCN)c2c1 [5-Nonyloxytryptamine]	5%	−3.607 SD	
C[n+]1c2cc(N)ccc2cc2ccc(N)cc21.[Cl-] [ACRIFLA VINIUM HYDROCHLORIDE, ACRIFLAVINIUM HYDROCHLORIDE]		−4.148 SD	
CCCCCCc1ccc(O)cc1O.Nc1c2ccccc2nc2ccccc12 [ACRISORCIN]		−3.600 SD	
CC[C@@]1(O)C[C@H](O[C@H]2C[C@H](N(C)C)[C@H](O)[C@H](C)O2)c2c(cc3c(c2O)C(=O)c2c(O)cccc2C3=O)[C@H]1C(=O)OC [AKLAVINE HYDROCHLORIDE]		−3.741 SD	
Nc1c2ccccc2nc2ccccc12 [AMINACRINE]		−4.103 SD	
N=c1ccn2c(n1)O[C@H]1[C@H](O)[C@@H](CO)O[C@H]12 [ANCITABINE HYDROCHLORIDE]		−3.031 SD	
CC(=O)O[C@@H]1C[C@@]2(C)[C@H](c3ccoc3)C[C@H]3O[C@]32[C@]2(C)C(=O)C(O)=C3C(C)(C)C(=O)C=C[C@]3(C)[C@@H]12 [ANTHOTHECOL]		−3.020 SD	
COc1ccc(C[C@H]2NC[C@H](O)[C@H]2OC(C)=O)cc1 [Anisomycin]		−4.015 SD	
CC(C)/N=c1\cc2n(-c3ccc(Cl)cc3)c3ccccc3nc-2cc1Nc1ccc(Cl)cc1 [CLOFAZIMINE]		−2.792 SD	
C[C@@H]1O[C@@H](O[C@H]2CC[C@]3(C=O)[C@H]4CC[C@]5(C)[C@@H](C6=CC(=O)OC6)CC[C@]5(O)[C@@H]4CC[C@]3(O)C2)[C@H](O)[C@H](O)[C@H]1O [CONVALLATOXIN]	11%	−3.689 SD	activity at 1 µM [1]: 12%; SD from Mean ([2]; Table 5S, pilot screen, 10 μM): −3.689 SD
CO[C@H]1C=C[C@@]23c4cc5c(cc4CN(C[C@@H]2O)[C@H]3C1)OCO5 [CRINAMINE]		−3.651 SD	
CO[C@H]1C[C@H](O[C@H]2CC[C@]3(C=O)[C@H]4CC[C@]5(C)[C@@H](C6=CC(=O)OC6)CC[C@]5(O)[C@@H]4CC[C@]3(O)C2)O[C@H](C)[C@H]1O [CYMARIN]	16%	−4.099 SD	activity at 1 µM [1]: 14%; SD from Mean ([2]; Table 5S, pilot screen, 10 μM): −4.099 SD
Nc1ccn([C@@H]2O[C@H](CO)[C@@H](O)[C@@H]2O)c(=O)n1 [CYTARABINE]		−3.681 SD	
CC[C@@]1(O)C(=O)OCc2c1cc1n(c2=O)Cc2cc3ccccc3nc2-1 [Camptothecine (S+)]		−5.283 SD	
CC(C)=CCc1c(O)cc2occ(-c3ccc4c(c3)OCO4)c(=O)c2c1O [DERRUBONE]	15%	−3.621 SD	activity at 1 µM [1]: 11%; SD from Mean ([2]; Table 5S, pilot screen, 10 μM): −3.621 SD
C[C@H]1O[C@@H](O[C@H]2[C@@H](O)C[C@H](O[C@H]3[C@@H](O)C[C@H](O[C@H]4CC[C@@]5(C)[C@H](CC[C@@H]6[C@@H]5CC[C@]5(C)[C@@H](C7=CC(=O)OC7)CC[C@]65O)C4)O[C@@H]3C)O[C@@H]2C)C[C@H](O)[C@@H]1O [DIGITOXIN]	19%	−4.100 SD	activity at 1 µM [1]: 27%; SD from Mean ([2]; Table 5S, pilot screen, 10 μM): −4.100 SD
COc1cccc2c1C(=O)c1c(O)c3c(c(O)c1C2=O)C[C@@](O)(C(C)=O)C[C@@H]3O[C@H]1C[C@H](N)[C@H](O)[C@H](C)O1 [Daunorubicin hydrochloride]		−4.155 SD	
C[C@]12CC[C@H](O)C[C@H]1CC[C@@H]1[C@@H]2CC[C@]2(C)[C@@H](C3=CC(=O)OC3)CC[C@]12O [Digitoxigenin]	13%	−3.629 SD	activity at 1 µM [1]: 38%; SD from Mean ([2]; Table 5S, pilot screen, 10 μM): −3.629 SD
C[C@]12CC[C@H](O)C[C@H]1CC[C@@H]1[C@@H]2C[C@@H](O)[C@]2(C)[C@@H](C3=CC(=O)OC3)CC[C@]12O [Digoxigenin]	22%	−3.264 SD	activity at 1 µM [1]: 90%; SD from Mean ([2]; Table 5S, pilot screen, 10 μM): −3.264 SD
Cc1c2ccncc2c(C)c2c1[nH]c1ccccc12 [Ellipticine]		−3.485 SD	
CC[C@H]1CN2CCc3cc(OC)c(OC)cc3[C@@H]2C[C@@H]1C[C@H]1NCCc2cc(OC)c(OC)cc21 [Emetine dihydrochloride]	19%	−4.840 SD	activity at 1 µM [1]: 18%; SD from Mean ([2]; Table 5S, pilot screen, 10 μM): −4.840 SD
CC(C)=CCC[C@]1(C)C=Cc2c(O)c3c(c(CC=C(C)C)c2O1)O[C@]12C(=C[C@@H]4C[C@H]1C(C)(C)O[C@@]2(C/C=C(/C)C(=O)O)C4=O)C3=O [GAMBOGIC ACID]		−4.841 SD	
CC(=O)O[C@H]1CC[C@@]2(C)[C@H](CC[C@@H]3[C@@H]2CC[C@]2(C)[C@@H](C4=CC(=O)OC4)[C@@H](OC(C)=O)C[C@]32O)C1 [GITOXIGENIN DIACETATE]	21%	−4.261 SD	activity at 1 µM [1]: 27%; SD from Mean ([2]; Table 5S, pilot screen, 10 μM): −4.261 SD

Compound	activity at 10 µM [1]	SD from Mean [2, 3]	further results
C[C@H]1O[C@@H](O[C@H]2[C@@H](O)C[C@H](O[C@H]3[C@@H](O)C[C@H](O[C@H]4CC[C@@]5(C)[C@H](CC[C@@H]6[C@@H]5CC[C@]5(C)[C@@H](C7=CC(=O)OC7)[C@@H](O)C[C@]65O)C4)O[C@@H]3C)O[C@@H]2C)C[C@H](O)[C@@H]1O [GITOXIN]	12%	−4.086 SD	activity at 1 µM [1]: 21%; SD from Mean ([2]; Table 5S, pilot screen, 10 μM): −4.086 SD
COC(=O)C[C@](O)(CCCC(C)(C)O)C(=O)O[C@@H]1C(OC)=C[C@]23CCCN2CCc2cc4c(cc2[C@H]13)OCO4 [HOMOHARRINGTONINE]		−3.117 SD	
CC(=O)[C@]1(O)Cc2c(O)c3c(c(O)c2[C@@H](O[C@H]2C[C@H](N)[C@H](O)[C@H](C)O2)C1)C(=O)c1ccccc1C3=O [IDARUBICIN HCl]			SD from Mean ([2]; Table 1, 24 hrs, single 10 μM dose, Z-score of luciferase, HCl): −2.944 SD
CC(=O)[C@]1(O)Cc2c(O)c3c(c(O)c2[C@@H](O[C@H]2C[C@H](N)[C@H](O)[C@H](C)O2)C1)C(=O)c1ccccc1C3=O [IDARUBICIN]		−2.719 SD	
CC(C)[N+](C)(CCC(C(N)=O)(c1ccccc1)c1ccccc1)C(C)C [ISOPROPAMIDE IODIDE]		−4.073 SD	
CNC1CC(c2ccc(Cl)c(Cl)c2)c2ccccc21 (stereo not shown) [Indatraline]	6%		
Cl.Cl.O=C1c2c(O)ccc(O)c2C(=O)c2c(NCCNCCO)ccc(NCCNCCO)c21 [MITOXANTHRONE HYDROCHLORIDE]		−4.333 SD	
CC1=CC(=O)c2ccccc2C1=O [Menadione]	35%	−3.434 SD	
O=C1c2c(O)ccc(O)c2C(=O)c2c(NCCNCCO)ccc(NCCNCCO)c21 [Mitoxantrone dihydrochloride]		−3.666 SD	
CO[C@H]1[C@H](O)[C@H](O[C@H]2CC[C@@]3(C)[C@H](CC[C@@H]4[C@@H]3CC[C@]3(C)[C@@H](C5=CC(=O)OC5)CC[C@]43O)C2)O[C@@H](C)[C@@H]1O [NERIIFOLIN]	17%	−3.045 SD	activity at 1 µM [1]: 17%
O=C(Nc1ccc([N+](=O)[O-])cc1Cl)c1cc(Cl)ccc1O [Niclosamide]		−4.393 SD	
N=C1C=CC(=C(c2ccc(N)cc2)c2ccc(N)cc2)C=C1 [PARAROSANILINE PAMOATE]		−2.740 SD	
O=C1C=C2C(=CCOC2O)O1 (stereo not shown) [PATULIN]		−3.651 SD	
CO[C@H]1C[C@H](O[C@H]2CC[C@]3(C)[C@H]4CC[C@]5(C)[C@@H](C6=CC(=O)OC6)CC[C@]5(O)[C@@H]4CC[C@]3(O)C2)O[C@H](C)[C@H]1O [PERIPLOCYMARIN]	17%	−2.759 SD	activity at 1 µM [1]: 75%
COC(=O)[C@]1(C)CC[C@]2(C)CC[C@]3(C)C4=CC=C5C(=CC(=O)C(O)=C5C)[C@]4(C)CC[C@@]3(C)[C@@H]2C1 [PRISTIMERIN]		−3.883 SD	
COc1ccc(C[C@H](N)C(=O)N[C@H]2[C@@H](O)[C@H](n3cnc4c(N(C)C)ncnc43)O[C@@H]2CO)cc1 [PUROMYCIN HYDROCHLORIDE]			SD from Mean ([2]; Table 1, 24 hrs, single 10 μM dose, Z-score of luciferase, HYDROCHLORIDE): −3.716 SD
COc1cc(/C=C/C(=O)N2CCC=CC2=O)cc(OC)c1OC [Piperlongumine]		−2.973 SD	
COc1ccc(C[C@H](N)C(=O)N[C@H]2[C@@H](O)[C@H](n3cnc4c(N(C)C)ncnc43)O[C@@H]2CO)cc1 [Puromycin dihydrochloride]			SD from Mean ([2]; Table 1, 24 hrs, single 10 μM dose, Z-score of luciferase, dihydrochloride): −4.723 SD
CCN(CC)CCCC(C)Nc1c2ccc(Cl)cc2nc2ccc(OC)cc12 (stereo not shown) [Quinacrine dihydrochloride dihydrate]		−3.270 SD	
CC[C@@]1(O)C[C@H](O)c2c(cc3c(c2O)C(=O)c2c(O)ccc(O)c2C3=O)[C@H]1C(=O)OC [RUTILANTINONE]		−2.722 SD	
C[C@@H]1O[C@@H](O[C@H]2C[C@@H](O)[C@]3(CO)[C@@H]4[C@@H](O)C[C@]5(C)[C@H](C6=CC(=O)OC6)CC[C@@]5(O)[C@H]4CC[C@]3(O)C2)[C@H](O)[C@H](O)[C@@H]1O [Strophantine octahydrate]		−3.624 SD	
COc1cc([C@@H]2c3cc4c(cc3[C@@H](O[C@@H]3O[C@@H]5CO[C@@H](c6cccs6)O[C@H]5[C@H](O)[C@H]3O)[C@H]3COC(=O)[C@H]23)OCO4)cc(OC)c1O [TENIPOSIDE]		−2.832 SD	
C[C@H]1CC[C@]2(NC1)O[C@H]1C[C@H]3[C@@H]4CC[C@H]5C[C@@H](O[C@@H]6O[C@H](CO)[C@H](O[C@@H]7O[C@H](CO)[C@@H](O)[C@H](O[C@@H]8OC[C@@H](O)[C@H](O)[C@H]8O)[C@H]7O[C@@H]7O[C@H](CO)[C@@H](O)[C@H](O)[C@H]7O)[C@H](O)[C@H]6O)CC[C@]5(C)[C@H]4CC[C@]3(C)[C@H]1[C@@H]2C [TOMATINE]		−4.999 SD	
Lycorine hydrochloride		−2.968 SD	
THIMEROSAL		−5.645 SD	
